Assay results as given in EP0364941A1, “Branched-chain alkyl esters of 2-(4-(2-piperidino ethoxy)benzoyl)benzoic acid, processes for their preparation and their use as spasmolytic agents” (HOECHST AKTIENGESELLSCHAFT, priority 1988, dated 1990).

Legend:
[1] = system: isolated guinea pig ileum; assay: Antispasmodic activity in isolated guinea pig ileum (acetylcholine-induced contraction); format: cell-based
Experimental: Small intestines obtained from freshly sacrificed guinea pigs (weight range, 200 - 400 g) of either sex were cleaned and stored in tyrode solution. A piece of ileum was mounted in an organ bath containing tyrode solution at 37°C and maintained at a tension of 0.5 to 1.0 g. The solution was continuously aerated with compressed air. After an initial equilibration period, a sub-maximal dose of acetylcholine required for measurable contraction was standardised. Tension changes were monitored using an isotonic strain gauge attached to the tissue and the responses were recorded on a strip chart recorder. Antispasmodic activity of test compounds at different concentrations was followed and the IC₅₀ values were calculated from dose response curves.

[2] = system: small intestine; assay: Antispasmodic activity in anaesthetized dog (carbachol or acetylcholine induced intestinal contractions); format: in vivo; conditions: anaesthetised dog
Experimental: Male mongrel dogs of weight range 10 to 15 kg were anaesthetised with pentobarbitone sodium (35 mg/ kg,i.v.). Slow i.v. infusion of pentobarbitone (5 mg/kg/hour) was given for maintenance anaesthesia. The endotracheal tube was inserted to facilitate spontaneous breathing. Both femoral artery and vein were cannulated respectively for recording blood pressure and administering drugs. After laparotomy, a small portion of small intestine distal to duodenum was isolated and saline filled balloon inserted and the opening was sutured. A fine polyethylene cannula was then inserted into the mesenteric artery which supplies to the area of intestine containing balloon for injection of carbachol or acetylcholine. A Statham pressure transducer was then attached to balloon cannula for recording both circular and longitudinal muscle contractions. All the parameters were recorded on 4 channel Nihon-Kohden recorder. The intestinal contractions were recorded after administering a standard dose of carbachol or acetylcholine (0.5 to 3 µg). Test compounds I and II were given at different doses 3,10 and 20 mg/kg intra-duodenally and spasmolytic activity was assessed at various time intervals. Anti-spasmodic activity was assessed by calculating percent reduction in agonist induced contractions and also noting onset and duration of activity. The test compounds were dissolved in distilled water (1% soln.). Table 3 Test compounds I and II were given at different doses (10, 30, 100, 300 and 1000 µg/kg) intravenously and spasmolytic activity was assessed at different time intervals. Anti-spasmodic activity was assessed by calculating percent reduction in agonist induced contractions. The ID₅₀ value was calculated from the dose response curve.

[3] = system: small intestine; assay: Motility of the small intestine in the conscious dog; format: in vivo; conditions: for Area under the contraction curve, Postdrug 10 min: 10 min postdrug; for Area under the contraction curve, Postdrug 10 min / Area under the contraction curve, Postdrug 20 min / Area under the contraction curve, Postdrug 30 min / Area under the contraction curve, Postdrug 40 min / Area under the contraction curve, Postdrug 50 min / Area under the contraction curve, Postdrug 60 min / Area under the contraction curve, Predrug -20 - 0: phase I and II; for Area under the contraction curve, Postdrug 20 min: 20 min postdrug; for Area under the contraction curve, Postdrug 30 min: 30 min postdrug; for Area under the contraction curve, Postdrug 40 min: 40 min postdrug; for Area under the contraction curve, Postdrug 50 min: 50 min postdrug; for Area under the contraction curve, Postdrug 60 min: 60 min postdrug; for Inhibition Maximal / Inhibition Mean / ED50: phase I+II activity; for Area under the contraction curve, Predrug -20 - 0: predrug baseline -20 - 0 min; for Duration of action: when postdrug values reached 90 % or more of predrug values; for ED50: Canis lupus familiaris, iv
From the text: Male dogs (THG Tierhandelsgesellschaft Rodenbach, Hoe:BEAK (Beagle)) weighing 15 - 20 kg were used in all experiments. At least 4 weeks prior to the experiment the dogs had been equipped with miniaturized strain gage force transducers (T1-T3) (2x4 mm), sutured onto the gut at the locations mentioned below. The cables of the transducers were embedded into a cannula which carried the plug for external electric connection. This stainless steel cannula was implanted into the abdominal wall, close below the costal arch. Each transducer was connected to a measuring bridge. The signals were on line stored using a HP 9835 A computer, allowing later analysis of the data. • T1 : Proximal jejunum • T2 : Distal jejunum • T3 : Ileum
18 hours prior to the experiment food was withdrawn from the animals, water ad libidum. All experiments started between 08:00 and 09:00 am.
The following motility parameters were determined: The integral under the […] at 10 min intervals (mNx10min) as an index of phase I + II activity. The duration of drug action (min.) The duration of the interdigestive migrating complex (IMC) (min) as a measure of phase III activity.
Test Compound II was given at doses of 0.2 and 0.5 mg/kg i.v. or 5 mg/kg i.g., dissolved in saline, in a volume of 1 ml/kg (i.v.) or 2 ml/kg (i.g.), n = 3 - 6. Control n = 26.
Buscopan was given at doses of 0.3 and 1 mg/kg i.v., dissolved in saline, in a volume of 1 ml/kg, n = 4 - 6. Pitofenone was given at doses of 1 mg/kg i.v., dissolved in saline, in a volume of 1 ml/kg, n = 8.
ID₅₀-values were determined graphically.

[4] = system: small intestine; assay: Gastrointestinal propulsion (charcoal transport) in mice; format: in vivo
Experimental: Ref.: J.M.A. Zwagemakers and V. Claassen, Arzneim-Forsch/-Drug Res. 30 (II) Nr.9, p.1517 (1980).
The test compounds I and II were given orally by gavage in a range of 10 to 100 mg/kg doses 30 min before charcoal suspension (0.2 ml/animal, 10% charcoal in 5% gum acacia) in 18 hrs fasted mice (male or female, weight range 18 to 25 g). 30 min after administration of charcoal animals were killed and the extent of charcoal propulsion in the small intestine was measured. The inhibitory activity of test compound on charcoal transport was assessed as percent inhibition compared to length of intestine. For control group 10 ml/kg of saline was given.

[5] = system: Porcine liver esterase; assay: Enzymatic hydrolysis rates by porcine liver esterase; format: in vitro ADME; conditions: test compound 1 mM, pH 8.0, 37°C
Experimental: Porcine liver esterase (0.5 U = 2 µg) was preincubated in 40 mM Tris-HCl buffer, pH 8.0, at 37°C for 5 min. The reaction was initiated with the addition of the test compound (final concentration, 1 mM) in the final volume of 250 µl. Enzyme reaction was terminated at different time intervals by the addition of 60 µl of 1 M acetic acid. The solution was made alkaline (pH 10.5) by adding 0.4 M NaOH and the alkaline solution was rapidly extracted (three times) with 2.5 ml of chloroform. An aliquot of the aqueous supernatant was diluted with double distilled water and the absorbance was measured at 290 nm. Amount of test compound III (molar extinction = 14,400) formed was calculated.

In the case of `CC(C)OC(=O)c1ccccc1C(=O)c1ccc(OCCN2CCCCC2)cc1.Cl` [Test Compound II, Isopropyl-2-[4-(2-piperidino-ethoxy)-benzoyl]-benzoate hydrochloride], the “Guinea pig ileum Duration of action” value [1] is reported as over 7.0 min, the IC50 ([1]; Cavia porcellus, read-out: Guinea pig ileum IC₅₀) is reported as 0.01 µg/mL and the Duration ([2]; 3 mg/kg intra-duodenal) is reported as 35 min. It also gave an On-set ([2]; 3 mg/kg intra-duodenal) of 7 min, a Percent Inhibition ([2]; 3 mg/kg intra-duodenal) of 54% and a Duration ([2]; 10 mg/kg intra-duodenal) of 78 min. The On-set ([2]; 10 mg/kg intra-duodenal) was 6.5 min, the Percent Inhibition ([2]; 10 mg/kg intra-duodenal) was 83% and the ED50 ([2]; Canis lupus familiaris, iv, read-out: ID₅₀) was 0.01 mg/kg. The Duration of action ([2]; intravenous administration) was over 60 min, the “Area under the contraction curve, Postdrug 10 min” value ([3]; 0.2 mg/kg i.v.) was 1.54 mN x 10 min and the “Area under the contraction curve, Postdrug 20 min” value ([3]; 0.2 mg/kg i.v.) was 1.42 mN x 10 min. The “Area under the contraction curve, Postdrug 30 min” value ([3]; 0.2 mg/kg i.v.) was 1.88 mN x 10 min, the “Area under the contraction curve, Postdrug 40 min” value ([3]; 0.2 mg/kg i.v.) was 1.77 mN x 10 min and the “Area under the contraction curve, Postdrug 50 min” value ([3]; 0.2 mg/kg i.v.) was 1.78 mN x 10 min. The “Area under the contraction curve, Postdrug 60 min” value ([3]; 0.2 mg/kg i.v.) was 2.19 mN x 10 min, the “Inhibition Maximal” value ([3]; 0.2 mg/kg i.v.) was 34% and the “Inhibition Mean” value ([3]; 0.2 mg/kg i.v.) was 22 ± 4%. The “Area under the contraction curve, Predrug -20 - 0” value ([3]; 0.2 mg/kg i.v.) was 2.15 mN x 10 min, the Duration of action ([3]; 0.2 mg/kg i.v.) was 50 min and the “duration of inhibitory effect” value ([3]; 0.5 mg/kg i.v., conscious dog) was “approximately one”. The “Area under the contraction curve, Postdrug 10 min” value ([3]; 0.5 mg/kg i.v.) was 0.54 mN x 10 min, the “Area under the contraction curve, Postdrug 20 min” value ([3]; 0.5 mg/kg i.v.) was 0.50 mN x 10 min and the “Area under the contraction curve, Postdrug 30 min” value ([3]; 0.5 mg/kg i.v.) was 0.99 mN x 10 min. The “Area under the contraction curve, Postdrug 40 min” value ([3]; 0.5 mg/kg i.v.) was 1.17 mN x 10 min, the “Area under the contraction curve, Postdrug 50 min” value ([3]; 0.5 mg/kg i.v.) was 1.61 mN x 10 min and the “Area under the contraction curve, Postdrug 60 min” value ([3]; 0.5 mg/kg i.v.) was 2.46 mN x 10 min. The “Inhibition Maximal” value ([3]; 0.5 mg/kg i.v.) was 81%, the “Inhibition Mean” value ([3]; 0.5 mg/kg i.v.) was 54 ± 11% and the “Area under the contraction curve, Predrug -20 - 0” value ([3]; 0.5 mg/kg i.v.) was 2.62 mN x 10 min. The Duration of action ([3]; 0.5 mg/kg i.v.) was 60 min, the Duration of cycles ([3]; 5 mg/kg intragastrical, Phase III activity) was 298 ± 18 min and the “inhibition of phase III activity” value ([3]; 5 mg/kg intragastrically, conscious dog) was “pronounced inhibition”. The ED50 ([3]; conscious dog, read-out: intravenous IC₅₀-values determined from maximal inhibition) was 0.22 mg/kg, the ED50 ([3]; determined graphically, read-out: ID₅₀) was 0.26 mg/kg and the “Percent Inhibition” value ([4]; 10 mg/kg p.o.) was 38.0 ± 4.0%. The “Percent Inhibition” value ([4]; 30 mg/kg p.o.) was 41.0 ± 3.0%, the “Percent Inhibition” value ([4]; 60 mg/kg p.o.) was 46.0 ± 5.0% and the “µmol test compound III formed per mg protein per ml” value ([5]; Time 0.0 hours) was 0.00 µmol per mg protein per ml. The “µmol test compound III formed per mg protein per ml” value ([5]; Time 0.5 hours) was 0.05 µmol per mg protein per ml, the “µmol test compound III formed per mg protein per ml” value ([5]; Time 2.0 hours) was 0.10 µmol per mg protein per ml and the “µmol test compound III formed per mg protein per ml” value ([5]; Time 3.5 hours) was 0.10 µmol per mg protein per ml.
